Measurements from patent publication US20080214504A1, “Vitamin B6 Related Compounds and Methods for Recovery From Trauma” (MEDICURE INTERNATIONAL INC., priority 2004, published 2008).

Test system: patients scheduled for elective percutaneous coronary intervention (PCI) with high-risk features for periprocedural myocardial infarction
Assay: Randomized placebo-controlled study of P5P in patients undergoing elective PCI: recovery, length of hospitalization, time to discharge
Assay type: in vivo, human
Text: Selection of Study Population—The patients selected for this trial were patients scheduled for elective percutaneous coronary intervention (PCI) with high-risk features for periprocedural myocardial infarction, and who satisfied specific inclusion criteria as described in the next section. Patients to be included in this study were of either sex, >18 years of age and admitted to hospital for elective, single-vessel, non-urgent PCI. Patients must have presented with at least one of the following high-risk clinical criteria: • ACS with last chest pain episode (or ischemic equivalent) within 48 hours, • recent myocardial infarction (≦7 days) with return of cardiac markers, (CK, CK-MB, and troponin) to below upper normal limits, • angiographic evidence of reduced epicardial flow (TIMI<3), • angiographic evidence of thrombus, • left ventricular ejection fraction≦30%, or • saphenous vein graft lesion.
The following patients were not eligible for inclusion into the study: • Those having suffered a recent myocardial infarction with elevated cardiac markers (CK-MB, troponin T), that have not returned to below upper limits or normal; • Those with electrocardiographic evidence of left bundle branch block (LBBB), ventricular paced rhythm, or atrial fibrillation; • Those with a planned multivessel PCI or PCI of known total occlusion (TIMI grade 0); • Those with evidence of ongoing or active clinical instability including; sustained systolic blood pressure<90 mmHg, cardiogenic shock, acute pulmonary edema or severe congestive heart failure, suspected acute myocarditis, pericarditis, endocarditis, cardiac tamponade, suspected dissecting aortic aneurysm, hemodynamically significant valvular heart disease, hypertrophic cardiomyopathy, restrictive cardiomyopathy, or congenital heart disease; • Any contraindication to the PCI procedure or any of the standard concomitant therapies used during routine PCI (e.g. aspirin, clopidogrel, heparin, low molecular weight heparin, direct antithrombin inhibitors, platelet glycoprotein IIb/IIIa antagonists); • Patients who were currently enrolled in a clinical trial of an investigational drug or who have participated in a clinical trial for an investigational drug (a new chemical entity not registered for clinical use) within 30 days preceding entry into the study or who are due to enter such a trial during the study period; • Patients with clinically significant abnormal laboratory findings (within 2 weeks prior to PCI) including: ALT, AST, bilirubin, or Alk Phos>1.5×ULN, Serum creatinine>1.8 mg/dL or 159 μmol/L; • Patients with any other pathology such as cancer, mental illness etc., which in the opinion of the investigator, might put the patient at risk or confound the results of the trial; • Female patients who are pregnant, breast feeding or planning a pregnancy during the course of the study; and • Patients who are unable or unwilling to comply with the protocol or who are not expected to complete the study period.
Treatments Administered—Following baseline laboratory assessments, patients were randomized to placebo or P5P (a vitamin B6 related compound), administered as a 10 mg/kg oral dose, at least (4) hours prior to PCI, followed by 10 mg/kg orally divided in two daily doses for fourteen (14) days. If PCI was delayed for more than 12 hours after initial dosing, they continued with scheduled BID dosing. If the initial loading dose was administered prior to or at 12:00 PM on day 1 of randomization, then the patient received a second evening dose. If the initial loading dose was administered following 12:00 PM, then no further dosing was administered on day 1, and the patient was to begin the next dose in the morning of day 2. If a dose was missed for more than 24 hours, patients were to continue to take the study drug as scheduled without taking supplemental doses. The date, time and dosing of the first and last study drug dosing was recorded in the CRF. […]

[1] = P5P 10 mg/kg oral, N = 37 (3 missing)

Q: With Cc1ncc(COP(=O)(O)O)c(C=O)c1O [P5P, pyridoxal-5′-phosphate] as the molecule, how does the “Time in hospital relative to placebo” value (3.3 days versus 7.0 days for placebo) read?
A: half as long

Q: And the “Length of hospitalization, Median (25th, 75th)” value (P5P 10 mg/kg oral at least 4 h prior to PCI, then 10 mg/kg/day for 14 days, N = 40)?
A: 1.0 (1.0, 3.0) days

Q: What about the “Length of hospitalization, Mean (S.D.)” value (P5P 10 mg/kg oral at least 4 h prior to PCI, then 10 mg/kg/day in two daily doses for 14 days, N = 40) of the same molecule?
A: 3.3 (5.5) days

Q: What about the “Time to discharge from initiation of PCI, Maximum” value (P5P 10 mg/kg oral, N = 37) of the same molecule?
A: 34.0 days

Q: And the “Time to discharge from initiation of PCI, Minimum” value (P5P 10 mg/kg oral, N = 37)?
A: 1.0 days

Q: And the “Time to discharge from initiation of PCI, Mean (S.D)” value [1]?
A: 1.9 (5.4) days

Q: And the “Time to discharge from initiation of PCI, Medium (25th, 75th)” value [1]?
A: 1.0 (1.0, 1.0) days

Q: What about the “Length of hospitalization, Maximum” value (P5P 10 mg/kg oral, N = 40) of the same molecule?
A: 34.0 days

Q: And the “Length of hospitalization, Minimum” value (P5P 10 mg/kg oral, N = 40)?
A: 0.0 days

Q: What about the “Number of days from initiation of PCI to discharge from hospital, shorter versus placebo” value (P5P versus placebo) of the same molecule?
A: 74%

Q: And the Time in hospital (placebo 7.0 days)?
A: 3.3 days
